Assay results taken from PubChem BioAssay AID330 (DTP/NCI, 2004).
Values joined by “and” are separate entries in the source; they are usually repeats but may differ in a detail not shown here. Equal values may be shown once. Inconclusive results and toxic doses are left out.

System: P388 leukemia ip, CD2F1 mice, survival T/C
Assay: NCI In Vivo Anticancer Drug Screen. Data for tumor model P388 Leukemia (intraperitoneal) in CD2F1 (CDF1) mice
Settings: endpoint: median survival time, higher = longer survival
In short: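 Mice carrying the transplanted tumor received test compound or vehicle. Survival was recorded in each group, and the value is the treated-group measurement divided by that of the vehicle-treated control group.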

For `Oc1cc2c(cc1O)CN1CCc3cc(O)c(O)cc3C1C2` (stereo not given), the T/C (dose: 100.0 mg/kg/injection, schedule: Q01DX009 (ip), vehicle: saline) was 114 % of control, the T/C (dose: 200.0 mg/kg/injection, schedule: Q01DX009 (ip), vehicle: saline) was 109 % of control and the T/C (dose: 400.0 mg/kg/injection, schedule: Q01DX009 (ip), vehicle: saline) was 101 % of control.
In the case of `COC(=O)C1(CC(C)=O)NC(=S)NC(=O)C1C#N` (stereo not given), the T/C (dose: 60.0 mg/kg/injection, schedule: Q01DX005 (ip), vehicle: saline) is reported as 100 % of control, the T/C (dose: 120.0 mg/kg/injection, schedule: Q01DX005 (ip), vehicle: saline) is reported as 96 % of control and the T/C (dose: 240.0 mg/kg/injection, schedule: Q01DX005 (ip), vehicle: saline) is reported as 97 % of control.
In the case of `CN(C)c1nc(NC=O)nc(N(C)C)n1`, the T/C (dose: 50.0 mg/kg/injection, schedule: Q04DX002 (ip), vehicle: saline with Tween-80) is reported as 99 % of control, the T/C (dose: 100.0 mg/kg/injection, schedule: Q04DX002 (ip), vehicle: saline with Tween-80) is reported as 99 % of control and the T/C (dose: 200.0 mg/kg/injection, schedule: Q04DX002 (ip), vehicle: saline with Tween-80) is reported as 100 % of control.
In the case of `CCCCCCCCCC1=C(C#N)C(=O)OCCN1C`, the T/C (dose: 60.0 mg/kg/injection, schedule: Q01DX005 (ip), vehicle: saline with Tween-80) is reported as 92 % of control and the T/C (dose: 120.0 mg/kg/injection, schedule: Q01DX005 (ip), vehicle: saline with Tween-80) is reported as 93 % of control.
For `CCOC1=CC(=O)/C(=C/O[Si](C)(C)C)CC1`, the T/C (dose: 50.0 mg/kg/injection, schedule: Q01DX009 (ip), vehicle: saline with Tween-80) was 103 % of control and the T/C (dose: 100.0 mg/kg/injection, schedule: Q01DX009 (ip), vehicle: saline with Tween-80) was 99 % of control.
With `O=C(O)c1ccc(N2N=C3C(=CC(=O)c4ccccc43)SCC2=O)cc1` the T/C (dose: 12.5 mg/kg/injection, schedule: Q01DX005 (ip), vehicle: saline + Tween-80 + alcohol) was 97 % of control and the T/C (dose: 25.0 mg/kg/injection, schedule: Q01DX005 (ip), vehicle: saline + Tween-80 + alcohol) was 112 % of control.
In the case of `O=C1C=C(NCc2ccccc2)CCC1`, the T/C (dose: 1.56 mg/kg/injection, schedule: Q01DX009 (ip), vehicle: saline) is reported as 109 % of control, the T/C (dose: 3.12 mg/kg/injection, schedule: Q01DX009 (ip), vehicle: saline) is reported as 113 % of control and the T/C (dose: 6.25 mg/kg/injection, schedule: Q01DX009 (ip), vehicle: saline) is reported as 100 % of control.
For `C=C(C)[C@]12CC(C)C34OC(/C=C\C=C\CCCCCCCCC)(O[C@@H]1[C@@H]3[C@@H]1O[C@]1(CO)[C@@H](O)[C@]1(O)C(=O)C(C)=C[C@@H]41)O2` (stereo not given in full), the T/C (dose: 0.75 mg/kg/injection, schedule: Q01DX009 (ip), vehicle: alcohol) was 160 % of control and the T/C (dose: 1.5 mg/kg/injection, schedule: Q01DX009 (ip), vehicle: alcohol) was 160 % of control and 163 % of control.
